From patent US10821115B2, “Compounds that inhibit Mcl-1 protein” (priority 2017, dated 2020) come the findings set out here.

pIC50: −log10 of the molar value. Like-named read-outs stand apart in the source and are kept apart here.

In general, pIC50 refers to −log10 of the IC50, conventionally taken in molar units.

Assay [1] concerns the target recombinant human Mcl-1 (residues 171-327) / Bim interaction (Homo sapiens (Human), UniProt Q07820). Kind of assay: biochemical. The following applies: read-out: Mcl-1 HTRF IC50. Type of assay: binding. For orientation: Time-resolved FRET reads energy transfer from a long-lived donor to a nearby acceptor.
Assay [2] relates to human multiple myeloma cell line, OPM-2. Kind of assay: Cell viability assay (OPM-2 10 FBS), CellTiter-Glo. Type of assay: cell-based. The method in brief: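 IC50 values come from 4-parameter logistic fits of luminescence signals reflecting cell viability. Treatment lasted 16 h at 37 °C in complete medium with 10% FBS, starting from 3000 cells/well.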
On the technique in general: Cellular ATP, detected with luciferase, serves as a proxy for viable cell number.

The mark [3] stands for this setting: 0.1 nM Mcl-1(171-327), 0.05 nM biotin-Bim (51-76).
Where [4] appears, read: Homo sapiens, OPM-2, 16 h, read-out: OPM-2 10% FBS IC50 IP, OPM-2 cells, 10% FBS, 16 h incubation.
Where [5] appears, read: TR-FRET, Mcl-1(171-327) / biotin-Bim (51-76).
[6] abbreviates: read-out: OPM-2 10% FBS IC50 IP, OPM-2 cells, 10% FBS, 16 h, CellTiter-Glo.
The mark [7] stands for this setting: Homo sapiens, OPM-2, 16 h, read-out: OPM-2 10% FBS IC50 IP, OPM-2 cells, 10% FBS, 16 h, CellTiter-Glo.

recombinant human Mcl-1 (residues 171-327) / Bim interaction, sequence (Q07820 171-327): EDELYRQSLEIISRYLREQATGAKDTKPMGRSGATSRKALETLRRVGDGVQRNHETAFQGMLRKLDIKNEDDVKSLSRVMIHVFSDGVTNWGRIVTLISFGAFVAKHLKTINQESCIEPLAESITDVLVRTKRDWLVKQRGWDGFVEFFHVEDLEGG

As for `CO[C@]1(CN2CCN3CCCC[C@@H]3C2)/C=C/C[C@H](C)[C@@H](C)S(=O)(=O)NC(=O)c2ccc3c(n2)N(C[C@@H]2CC[C@H]21)C[C@@]1(CCCc2cc(Cl)ccc21)CO3` [Example 186, (1S,3′R,6′R,7′R,8′E,11′S,12′R)-6-chloro-7′-methoxy-11′,12′-dimethyl-7′-((9aR)-octahydro-2H-pyrido[1,2-a]pyrazin-2-ylmethyl)-3,4-dihydro-2H,15′H-spiro[naphthalene-1,22′-[20]oxa[13]thia[1,14,25]triazatetracyclo [14.7.2.0~3,6~.0~19,24~]pentacosa[8,16,18,24]tetraen]-15′-one 13′,13′-dioxide], the pIC50 was 9.59 in assay [1] (setting [3]) and 6.37 in assay [2] (setting [4]).
As to `C[C@@H]1[C@@H](C)CCC[C@@](O)(Cc2ccccn2)[C@@H]2CC[C@H]2CN2C[C@@]3(CCCc4cc(Cl)ccc43)COc3ccc(cc32)C(=O)NS1(=O)=O` [Example 100105, (1S,3′R,6′R,7′R,11′S,12′R)-6-chloro-7′-hydroxy-11′,12′-dimethyl-7′-(2-pyridinylmethyl)-3,4-dihydro-2H,15′H-spiro[naphthalene-1,22′-[20]oxa[13]thia[1,14]diazatetracyclo [14.7.2.0~3,6~.0~19,24~]pentacosa[16,18,24]trien]-15′-one 13′,13′-dioxide], the pIC50 was 8.23 in assay [1] (setting [5]) and 5.44 in assay [2] (setting [6]).
In the case of `C#C[C@@]1(OC)/C=C/C[C@H](C)[C@@H](C)S(=O)(=O)NC(=O)c2ccc3c(c2)N(C[C@@H]2CC[C@H]21)C[C@@]1(CCCc2cc(Cl)ccc21)CO3` [Example 100503, (1S,3′R,6′R,7′R,8′E,11′S,12′R)-6-chloro-7′-ethynyl-7′-methoxy-11′,12′-dimethyl-3,4-dihydro-2H,15′H-spiro[naphthalene-1,22′-[20]oxa[13]thia[1,14]diazatetracyclo [14.7.2.0~3,6~.0~19,24~]pentacosa[8,16,18,24]tetraen]-15′-one 13′,13′-dioxide], the pIC50 is 9.31 in assay [1] (setting [5]) and 6.15 in assay [2] (setting [7]).
`CCCCO[C@]1(CN2CCN3CCOC[C@@H]3C2)/C=C/C[C@H](C)[C@@H](C)S(=O)(=O)NC(=O)c2ccc3c(c2)N(C[C@@H]2CC[C@H]21)C[C@@]1(CCCc2cc(Cl)ccc21)CO3` [Example 48, (1S,3′R,6′R,7′R,8′E,11′S,12′R)-7′-butoxy-6-chloro-7′-((9aS)-hexahydropyrazino[2,1-c][1,4]oxazin-8(1H)-ylmethyl)-11′,12′-dimethyl-3,4-dihydro-2H,15′H-spiro[naphthalene-1,22′-[20]oxa[13]thia[1,14]diazatetracyclo [14.7.2.0~3,6~.0~19,24~]pentacosa[8,16,18,24]tetraen]-15′-one 13′,13′-dioxide]: the results for the pIC50 in assay [1] (setting [3]) and in assay [2] (setting [4]) were 9.85 and 6.39, respectively.
On to `C[C@@H]1[C@@H](C)CCC[C@@](O)(CC(=O)N2CCN(C)CC2)[C@@H]2CC[C@H]2CN2C[C@@]3(CCCc4cc(Cl)ccc43)COc3ccc(cc32)C(=O)NS1(=O)=O` [Example 100167, (1S,3′R,6′R,7′R,11′S,12′R)-6-chloro-7′-hydroxy-11′,12′-dimethyl-7′-(2-(4-methyl-1-piperazinyl)-2-oxoethyl)-3,4-dihydro-2H,15′H-spiro[naphthalene-1,22′-[20]oxa[13]thia[1,14]diazatetracyclo [14.7.2.0~3,6~.0~19,24~]pentacosa[16,18,24]trien]-15′-one 13′,13′-dioxide], for which the figures for the pIC50 in assay [1] (setting [5]) and in assay [2] (setting [7]) were 9.42 and 6.47, respectively.
Turning to `CO[C@@]1(CN2CCC2)/C=C/C[C@H](C)[C@@H](C)S(=O)(=O)NC(=O)c2ccc3c(c2)N(C[C@@H]2CC[C@H]21)C[C@@]1(CCCc2cc(Cl)ccc21)CO3` [Example 77, (1S,3′R,6′R,7′S,8′E,11′S,12′R)-7′-(1-azetidinylmethyl)-6-chloro-7′-methoxy-11′,12′-dimethyl-3,4-dihydro-2H,15′H-spiro[naphthalene-1,22′-[20]oxa[13]thia[1,14]diazatetracyclo [14.7.2.0~3,6~.0~19,24~]pentacosa[8,16,18,24]tetraen]-15′-one 13′,13′-dioxide], the pIC50 in assay [1] (setting [3]) was 8.91; in assay [2] (setting [4]), 6.38.
On to `CCN(CC)C(=O)C[C@@]1(O)/C=C/C[C@H](C)[C@@H](C)S(=O)(=O)NC(=O)c2ccc3c(c2)N(C[C@@H]2CC[C@H]21)C[C@@]1(CCCc2cc(Cl)ccc21)CO3` (single isomer, unassigned) [Example 100084], for which the pIC50 is 9.13 in assay [1] (setting [5]) and 5.83 in assay [2] (setting [7]).
For the compound `C[C@@H]1CS(=O)(=O)NC(=O)c2ccc3c(c2)N(C[C@@H]2CC[C@H]2[C@@](O)(CN2CCN(C4COC4)CC2)/C=C/[C@@H]1C)C[C@@]1(CCCc2cc(Cl)ccc21)CO3` [Example 165, (1S,3′R,6′R,7′R,8′E,10′S,11′S)-6-chloro-7′-hydroxy-10′,11′-dimethyl-7′-((4-(3-oxetanyl)-1-piperazinyl)methyl)-3,4-dihydro-2H,15′H-spiro[naphthalene-1,22′-[20]oxa[13]thia[1,14]diazatetracyclo [14.7.2.0~3,6~.0~19,24~]pentacosa[8,16,18,24]tetraen]-15′-one 13′,13′-dioxide], the pIC50 in assay [1] (setting [3]) is 9.72; in assay [2] (setting [4]), 6.74.
As for `COCCN(C)C(=O)C[C@]1(O)/C=C/C[C@H](C)[C@@H](C)S(=O)(=O)NC(=O)c2ccc3c(c2)N(C[C@@H]2CC[C@H]21)C[C@@]1(CCCc2cc(Cl)ccc21)CO3` [Example 100277, 2-((1S,3′R,6′R,7′S,8′E,11′S,12′R)-6-chloro-7′-hydroxy-11′,12′-dimethyl-13′,13′-dioxido-15′-oxo-3,4-dihydro-2H-spiro[naphthalene-1,22′-[20]oxa[13]thia[1,14]diazatetracyclo [14.7.2.0~3,6~.0~19,24~]pentacosa[8,16,18,24]tetraen]-7′-yl)-N-(2-methoxyethyl)-N-methylacetamide], the pIC50 was 9.58 in assay [1] (setting [5]) and 6.35 in assay [2] (setting [7]).
In the case of `COCC[C@@H]1[C@@H](C)C/C=C/[C@](CN2CCN3CCOC[C@@H]3C2)(OC)[C@@H]2CC[C@H]2CN2C[C@@]3(CCCc4cc(Cl)ccc43)COc3ccc(cc32)C(=O)NS1(=O)=O` [Example 179, (1S,3′R,6′R,7′S,8′E,11′S,12′R)-6-chloro-7′-((9aS)-hexahydropyrazino[2,1-c][1,4]oxazin-8(1H)-ylmethyl)-7′-methoxy-12′-(2-methoxyethyl)-11′-methyl-3,4-dihydro-2H,15′H-spiro[naphthalene-1,22′-[20]oxa[13]thia[1,14]diazatetracyclo [14.7.2.0~3,6~.0~19,24~]pentacosa[8,16,18,24]tetraen]-15′-one 13′,13′-dioxide], the pIC50 was 10.14 in assay [1] (setting [3]) and 7.44 in assay [2] (setting [4]).
Regarding `C[C@@H]1[C@@H](C)C/C=C/[C@](O)(c2cccnc2F)[C@@H]2CC[C@H]2CN2C[C@@]3(CCCc4cc(Cl)ccc43)COc3ccc(cc32)C(=O)NS1(=O)=O` (single isomer, unassigned) [Example 100314], the pIC50 is 8.53 in assay [1] (setting [5]) and 5.64 in assay [2] (setting [6]).
For the compound `C[C@@H]1[C@@H](C)C/C=C/[C@](O)(c2c[nH]nn2)[C@@H]2CC[C@H]2CN2C[C@@]3(CCCc4cc(Cl)ccc43)COc3ccc(cc32)C(=O)NS1(=O)=O` [Example 100239, (1S,3′R,6′R,7′R,8′E,11′S,12′R)-6-chloro-7′-hydroxy-11′,12′-dimethyl-7′-(1H-1,2,3-triazol-4-yl)-3,4-dihydro-2H,15′H-spiro[naphthalene-1,22′-[20]oxa[13]thia[1,14]diazatetracyclo [14.7.2.0~3,6~.0~19,24~]pentacosa[8,16,18,24]tetraen]-15′-one 13′,13′-dioxide], the pIC50 in assay [1] (setting [5]) was 9.48; in assay [2] (setting [7]), 5.43.
